Several values for one entry are separate records, joined by “and”; a condition that tells them apart may be missing. Equal entries are not always repeated. Where two headings read alike, the source gives them in different places.
Assays:
[1] = target: T1, human OGG1 enzyme (Homo sapiens, UniProt O15527); assay: OGG1 glycosylase activity assay (enzyme inhibition, APE1-coupled fluorescence); format: biochemical
Protocol: “8” signifies 8-oxoA and “FAM” and “Dab” signify fluorescein and dabcyl (TriLink Biotech). Briefly, compounds dissolved in DMSO were dispensed using an Echo 550 (Labcyte), followed by transfer of enzyme and substrate solutions manually with a 16-channel pipette or with a Multidrop (Thermo Scientific). The plates were centrifuged, sealed and incubated at room temperature overnight (15 h) and read the following morning in an Hidex Sense plate reader (Hidex Oy) using a 485-nm filter with a bandwidth of 10 nm for excitation and a 535-nm filter with a bandwidth of 20 nm for emission.

[2] = target: T1, human OGG1 enzyme; assay: Differential scanning fluorimetry (DSF) thermal shift assay; format: binding; parameters: ∆Tm (K): unit of the concentration uncertain
Protocol: The temperature was increased from 20 °C to 85 °C with 10 readings/degree. Tm values were calculated using an excel template and fitting to the Boltzmann equation in Prism v.6.07 (GraphPad Software).

[3] = test system: NF-κB activation in HEK293T pGF NF-κB cells; assay: TNF-α induced NF-κB activation assay; format: cell-based; details: Homo sapiens, HEK-293T; NFκB activation assay; ± SD; read-out: pEC50 (converted)
Protocol: The inhibition of TNF-α induced NF-κB activation was measured in HEK293T cells transfected with the pGreenfire NF-κB plasmid. This is a plasmid that has NF-κB response elements (TRE) coupled to GFP and luciferase expression. When the NF-κB is activated by TNF-α, it binds to the TRE and induces GFP expression, and the fluorescence can be measured in a plate reader. The cells were authenticated with STR profiling, frozen down and these stocks were used in experiments. The HEK293T pGF NF-κB cells were kept in DMEM with 5% FBS and 1% P/S but, when seeded for the assay the medium was changed to DMEM FluoroBrite with 1% dialyzed FBS. All cell culture reagents were purchased from Thermo Fisher Scientific. Compounds were nano-dispensed (Echo acoustic dispenser) in 96-well, black/clear, assay plates (Corning #3904), duplicate plates, in 8-points dose-response curves, 1:2 dilutions, with DMSO compensation (0.3% DMSO). Cells were seeded at 30000 cells/well in medium containing 10 ng/mL of TNF-α (Sigma-Aldrich), except negative control wells which only contained cells in medium. Cells were cultured for 24 hours in a humidified incubator at 37 °C with 5% CO2 after which the GFP fluorescence was measured in a Sense plate reader (Hidex) with ex485/em535. The RFU data from the duplicate plates were combined to calculate % inhibition of NF-κB activation and IC50-values were calculated using XLfit (IDBS). In parallel with the NF-κB assay, a CellTiterGlo (Promega) cell viability assay was run to exclude compounds affecting cell viability. Compounds were nano-dispensed (Echo acoustic dispenser) in assay plates in 11-points dose-response curves, 1:3 dilutions, without DMSO compensation, with duplicates on the same plate. Cells were seeded at 7500 cells/well in 25 µL medium (DMEM FluoroBrite with 1% dialyzed FBS) containing 10 ng/mL TNF-α and cultured for 24 hours, with column 24 containing only culture medium. After equilibration to room temperature, the CellTiterGlo reagents were mixed and 25 µL/well were added to the cell plate. After 2 min mixing of the plate on an orbital shaker, the plate was incubated for 10 min at room temperature followed by luminescence reading in Sense. The cell viability was calculated compared to untreated control wells and the EC50 values were determined in XLfit (IDBS). […]

[4] = test system: A2780 cells; assay: Cancer cell viability assay (resazurin), A2780; format: cell-based; details: two independent experiments; for percentage cell viability: A2780, 100 μM, 100 µM; for viability at 100 µM: Homo sapiens, A2780, A2780, 100 μM, read-out: percentage cell viability
Protocol: (§1) Three different cancer cell lines A2780 (ovarian cancer, ECACC 93112519), A549 (lung cancer, ATCC 60150896) and HCT116 (colon cancer, ATCC CCL-247), and one immortalized fibroblast cell line (BJhTERT) as control, were seeded in black/clear 384-well plates (Corning #3764), 50 µL/well, containing 11 concentrations, nano-dispensed, dose-response curves of the test compounds. A2780, HCT116, and HEK293T cell lines were authenticated with STR profiling, frozen down, and these stocks were used in experiments. The A2780 cells were cultured in RPMI 1640, the A549 and BJhTERT cells in DMEM, and the HCT116 cells in McCoys 5 A medium. All media were supplemented with 10% FBS and 1% P/S. All cell culture media, additives, and reagents were purchased from Thermo Fisher Scientific. The cell plates were incubated 72 hours in a humidified incubator at 37 °C with 5% CO2, after which resazurin (Sigma-Aldrich), 10 µL/well, was added to a final concentration of 10 µg/mL. The plates were incubated for 6 hours with resazurin followed by fluorescence readings in a Sense plate reader (Hidex), resorufin protocol (ex 544 nm/em 595 nm). The cell viability was calculated compared to untreated control wells and the EC50 values were determined in XLfit (IDBS).

[5] = test system: A549 cells; assay: Cancer cell viability assay (resazurin), A549; format: cell-based; details: two independent experiments; for percentage cell viability: A549, 100 μM, 100 µM; for viability at 100 µM: Homo sapiens, A549, A549, 100 μM, read-out: percentage cell viability
Protocol: as §1

[6] = test system: HCT116 cells; assay: Cancer cell viability assay (resazurin), HCT116; format: cell-based; details: two independent experiments; for percentage cell viability: HCT116, 100 μM, 100 µM; for viability at 100 µM: Homo sapiens, HCT-116, HCT116, 100 μM, read-out: percentage cell viability
Protocol: as §1

[7] = Cell viability assay (resazurin), BJhTERT non-transformed control; format: cell-based; details: human, BJhTERT, 100 μM, two independent experiments; read-out: percentage cell viability
Protocol: (§2) A2780, HCT116, and HEK293T cell lines were authenticated with STR profiling, frozen down, and these stocks were used in experiments. […] All media were supplemented with 10% FBS and 1% P/S. All cell culture media, additives, and reagents were purchased from Thermo Fisher Scientific. The cell plates were incubated 72 hours in a humidified incubator at 37 °C with 5% CO2, after which resazurin (Sigma-Aldrich), 10 µL/well, was added to a final concentration of 10 µg/mL. […] The cell viability was calculated compared to untreated control wells and the EC50 values were determined in XLfit (IDBS).

[8] = test system: BJhTERT cells; assay: as above; format: cell-based; details: BJhTERT, 100 μM, two independent experiments
Protocol: as §2

[9] = target: MTH1 (Homo sapiens, UniProt P36639); assay: biochemical
Protocol: Inhibition of the following enzymes was assessed in the selectivity assays: apurinic/apyrimidinic endonuclease (APE1), endonuclease 8-like 1 (NEIL1), oxidized purine nucleoside triphosphate hydrolase (MTH1) and single-strand selective monofunctional uracil DNA glycosylase (SMUG1). BER enzymes were assayed with a similar strategy as OGG1, using identical DNA sequences surrounding the substrate lesion and the same reaction buffer containing 2 nM APE1. To assess SMUG1 inhibition, a 375 nM substrate containing uracil opposite guanine and 0.3 U SMUG1 enzyme (M0336 from New England Biolabs) was used. To assess NEIL1 inhibition, a 20 nM substrate containing thymidine glycol opposite adenine and 10 nM NEIL1 was used. To assess APE1 inhibition, an UNG2 substrate was pre-treated with E. coli Uracil-DNA glycosylase (New England Biolabs M0280) to generate an AP-site opposite adenine, which was used at 10 nM concentration in the presence of 0.1 nM APE1. All BER inhibition assays were in the linear range and less than 40% of the total substrate had been consumed at readout. The experiments were performed in three independent replicates and the percentage inhibition was calculated relative to the signal of a DMSO-treated control. To assess MTH1 inhibition, MTH1-catalyzed dGTP hydrolysis was coupled to inorganic pyrophosphatase (PPase), thereby releasing inorganic phosphate. The produced free phosphate was then detected using the malachite green assay[76]. […] Substrate concentration at the Km value for the respective substrate was chosen if possible. Inhibition using 100 μM compound was tested in reaction buffer (100 mM Tris-Acetate pH 8.0, 10 mM magnesium acetate, 40 mM NaCl, 1 mM DTT, and 0.005% Tween-20). Samples were incubated with shaking at 22 °C for 15 minutes. The reaction was then stopped by the addition of the malachite green reagent[76]. Absorbance was read at 630 nm using a Hidex Sense plate reader after a period of incubation with the methylene green reagent of 15 minutes. The experiment was performed in three independent replicates and percentage inhibition was calculated relative to the signal of a DMSO-treated control.

[10] = 99 (unit uncertain) as printed in sheet footnote
[11] = Figure 3B source data, three independent experiments, read-out: IC50 OGG1
[12] = Table S5, ± SD, read-out: pIC50 (converted)

T1 sequence (O15527 whole entry): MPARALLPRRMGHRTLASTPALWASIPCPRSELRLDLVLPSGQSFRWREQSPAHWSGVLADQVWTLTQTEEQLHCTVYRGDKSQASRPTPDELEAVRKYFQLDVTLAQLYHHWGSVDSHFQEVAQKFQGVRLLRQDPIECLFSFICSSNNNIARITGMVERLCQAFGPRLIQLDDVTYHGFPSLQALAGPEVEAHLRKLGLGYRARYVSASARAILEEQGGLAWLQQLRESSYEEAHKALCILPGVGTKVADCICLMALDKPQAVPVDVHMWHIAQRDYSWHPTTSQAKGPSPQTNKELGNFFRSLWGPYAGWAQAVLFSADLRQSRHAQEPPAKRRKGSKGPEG

∆Tm (K) ([2]; 99 μM)	IC50 [1, 12]	SMILES	EC50 [3]	percentage cell viability [4]	viability at 100 µM [4]	percentage cell viability [5]	viability at 100 µM [5]	percentage cell viability [6]	viability at 100 µM [6]	viability at 72 h, 100 µM [7]	percentage cell viability [8]	also measured
5.5 K and 5.5 ± 1.2 K	–	Cc1cc(C)n(-c2ccc(CC(=O)Nc3noc4c3CCCC4)cc2)n1 [compound 7]	35.5 µM	–	–	–	–	–	–	–	–	OGG1 inhibition, dose-response (Figure2C) ([1]; Concentration (M) 9.67e-7): 16.25 and 10.96; OGG1 inhibition, dose-response (Figure2C) ([1]; Concentration (M) 1.93e-6): 24.11 and 22.26; OGG1 inhibition, dose-response (Figure2C) ([1]; Concentration (M) 3.87e-6): 37.42 and 38.76; OGG1 inhibition, dose-response (Figure2C) ([1]; Concentration (M) 7.73e-6): 52.82 and 50.97; OGG1 inhibition, dose-response (Figure2C) ([1]; Concentration (M) 1.55e-5): 74.43 and 67.46; OGG1 inhibition, dose-response (Figure2C) ([1]; Concentration (M) 3.09e-5): 80.92 and 75.35; OGG1 inhibition, dose-response (Figure2C) ([1]; Concentration (M) 6.19e-5): 85.03 and 86.63; OGG1 inhibition, dose-response (Figure2C) ([1]; Concentration (M) 0.000124): 92.57 and 92.28; OGG1 inhibition, dose-response (Figure2C) ([1]; Concentration (M) 0.000248): 92.32 and 95.26; OGG1 inhibition, dose-response (Figure2C) ([1]; Concentration (M) 0.000495): 96.86 and 92.16; IC50 ([1]; read-out: IC50): 6.6 µM; ∆Tm (K) [2, 10]: 5.5 ± 1.2 K; ΔTm ([2]; concentration not given): 5.5 K
5.4 ± 0.5 K	–	Cc1cc(C)n(-c2cc(F)c(CC(=O)Nc3noc4c3CCCC4)c(F)c2)n1 [compound 8]	11.2 µM	19.16%	17.4%	33.07%	32.8%	43.25%	35.4%	40.1%	42.84%	IC50 ([1]; Table 1, mean ± SD, at least three independent replicates, read-out: pIC50 (converted)): 6.46 µM; ∆Tm (K) [2, 10]: 5.4 ± 0.5 K
6.6 ± 0.6 K	3.72 µM	Cc1cc(C2CC2)n(-c2ccc(CC(=O)Nc3noc4c3CCCC4)cc2)n1 [compound 9]	9.12 µM	25.03%	21.5%	68.3%	68.1%	86.44%	81.6%	73%	80.1%	IC50 [1, 11]: 6.28 µM and 6.2 µM and 6.46 µM
4.8 ± 0.4 K	1.29 µM	Cc1nn(-c2ccc(CC(=O)Nc3noc4c3CCCC4)cc2)c2ccccc12 [compound 10]	6.61 µM	1.45%	0.84%	6.63%	5.97%	2.45%	2%	8.08%	8.77%	–
2.3 K	10.5 µM	O=C(Cc1ccc(-n2nc(Cl)c3ccccc32)cc1)Nc1noc2c1CCCC2 [compound 12]	5.5 µM	0.88%	1.08%	10.09%	12.3%	2.49%	3.25%	30.1%	28.88%	–
–	47.9 µM	O=C(Cc1ccc(-n2ncc3ccncc32)cc1)Nc1noc2c1CCCC2 [compound 13]	14.1 µM	–	–	–	–	–	–	–	–	–
–	9.77 µM	Cc1nn(-c2ccc(CC(=O)Nc3noc4c3CCCC4)cc2)c2ccc(N)cc12 [compound 14]	6.61 µM	5.95%	3.81%	28.85%	28.3%	30.89%	26%	38.5%	41.42%	–
–	> 100 µM	O=C(Cc1ccc(-n2ncc3c2CCNC3)cc1)Nc1noc2c1CCCC2 [compound 16]	> 31.6 µM	–	–	–	–	–	–	–	–	–
7.8 K	0.832 µM	Cc1nc(-c2ccc(CC(=O)Nc3noc4c3CCCC4)cc2F)c(C)[nH]1 [compound 18]	11.7 µM	4.22%	3.84%	56.99%	53.3%	53.92%	45.2%	38.1%	41.01%	IC50 [1, 11]: 0.589 µM and 0.638 µM and 0.615 µM; IC50 [9]: 18.4 µM and 20 µM and 18.5 µM
7.4 ± 0.2 K	0.813 µM	Cc1nc(-c2ccc(CC(=O)Nc3noc4c3CCCC4)c(C)c2)c(C)[nH]1 [compound 19]	10.5 µM	2.96%	2.43%	–	–	6.65%	5.31%	15.2%	24.77%	–
8.6 ± 0.5 K	0.741 µM	Cc1nc(-c2ccc(CC(=O)Nc3noc4c3CCCC4)c(F)c2)c(C)[nH]1 [compound 20]	20.4 µM	2.93%	2.84%	35.78%	35%	15.72%	13%	23.9%	24.23%	–
5.9 K	2.09 µM	Cc1[nH]c(Br)nc1-c1ccc(CC(=O)Nc2noc3c2CCCC3)cc1 [compound 21]	11.5 µM	6.18%	4.62%	31.92%	23.9%	47.52%	38.9%	63.3%	76%	–
6.3 K	1.95 µM	Cc1nc(-c2ccc(CC(=O)Nc3noc4c3CCCC4)nc2)c(C)[nH]1 [compound 22]	28.2 µM	65.16%	50.2%	96.69%	79.4%	64.01% and 103.96%	–	–	76.15% and 96.63%	–

Reference: PMC11836371, “Virtual fragment screening for DNA repair inhibitors in vast chemical space” (Nature Communications, 2025)
